This is an account of results in ChEMBL document CHEMBL1147389, “Two bioactive pterocarpans from Erythrina burana” (J Nat Prod, 1993).

The structures appear in SMILES notation. Some results are limits rather than exact numbers.

Assay [1] relates to CHO. Kind of assay: Cytotoxicity against p-glycoprotein overexpressing CHO cells. The assay is classed as cell-based. To be noted: Cricetulus griseus.
In assay [2] the test system is Saccharomyces cerevisiae. The assay is described as follows: DNA damaging activity against RS322 YK rad52 DNA repair gene deficient Saccharomyces cerevisiae mutant assessed as drug level required to produce 12 mm zone of inhibition after 48 hrs. In kind it is functional.
Assay [3] deals with CHO. Kind of assay: Cytotoxicity against CHO cells. The assay is classed as cell-based. To be noted: Cricetulus griseus.
For assay [4], the system named is Saccharomyces cerevisiae. The assay is described as follows: DNA damaging activity against RS321 […] DNA repair gene deficient Saccharomyces cerevisiae mutant assessed as drug level required to produce 12 mm zone of inhibition after 48 hrs. The assay is classed as functional.
The test system of assay [5] is P388. The assay is described as follows: Cytotoxicity against mouse P388 cells. In kind it is functional, cell-based.
Assay [6] has as its system Saccharomyces cerevisiae. The assay is described as follows: DNA damaging activity against RS188N rad DNA repair gene expressing Saccharomyces cerevisiae assessed as drug level required to produce 12 mm zone of inhibition after 48 hrs. In kind it is functional.
For assay [7], the system named is Saccharomyces cerevisiae. The assay is described as follows: DNA damaging activity against RS167 N rad6 DNA repair gene deficient Saccharomyces cerevisiae mutant assessed as drug level required to produce 12 mm zone of inhibition after 48 hrs. In kind it is functional.

By IC50 is commonly meant the midpoint of a concentration-inhibition curve. `COc1ccc2c(c1CC=C(C)C)O[C@H]1c3ccc(O)cc3OC[C@@]21O` [ERYTHRABYSSIN I]: the IC50 in assay [1] is 4 µM; in assay [3], above 20 µM; in assay [5], above 10 µM. In addition, the IC12 is 80 µg/mL in assay [2], 108 µg/mL in assay [4], 330 µg/mL in assay [6] and 540 µg/mL in assay [7].

Turning to `CC(C)=CCc1c(O)ccc2c1O[C@H]1c3ccc(O)cc3OC[C@@H]21` [PHASEOLLIDIN], the results for the IC50 in assay [1], in assay [3] and in assay [5] were 7.6 µM, 4 µM and above 10 µM, respectively. Further, the IC12 in assay [2] is 500 µg/mL; in assay [4] it was 400 µg/mL; in assay [6], 5500 µg/mL; in assay [7], above 1000 µg/mL.
